# Measurements published in patent publication US20070128217A1 (priority 2003, published 2007).
# How the values were obtained:
# [1] = system: antibodies in sera from SARS patients (sera 1a, 1b, 2, 6, 37, 62, London, SARS-yellow, SARS-green); type: binding, human; set-up: Binding of serum 6 to linear peptides of protein X1 of SARS-CoV Urbani / Binding of serum 37 to linear peptides of protein X1 of SARS-CoV Urbani / Binding of serum 6 to looped/cyclic peptide (PEPSCAN-ELISA) / Binding of serum 37 to looped/cyclic peptide (PEPSCAN-ELISA) / Binding of serum 37 to looped/cyclic peptides of protein X1 of SARS-CoV Urbani / Binding of serum 6 to linear peptides of protein X2 / Binding of serum 37 to linear peptides of protein X2 / Binding of serum 37 to looped/cyclic peptides of protein X2 of SARS-CoV Urbani / Binding of serum 6 to linear peptides of protein M of SARS-CoV Urbani / Binding of serum 37 to linear peptides of protein M of SARS-CoV Urbani / Binding of serum 6 to looped/cyclic peptides of protein M of SARS-CoV Urbani / Binding of serum 37 to looped/cyclic peptides of protein M of SARS-CoV Urbani / Binding of serum 6 to linear peptides of protein X3 of SARS-CoV Urbani / Binding of serum 37 to linear peptides of protein X3 of SARS-CoV Urbani / Binding of serum 37 to looped/cyclic peptides of protein X3 of SARS-CoV Urbani / Binding of serum 6 to linear peptides of protein X4 of SARS-CoV Urbani / Binding of serum 37 to linear peptides of protein X4 of SARS-CoV Urbani / Binding of serum 37 to looped/cyclic peptides of protein X4 of SARS-CoV Urbani / Binding of serum 6 to linear peptides of protein X5 of SARS-CoV Urbani / Binding of serum 37 to linear peptides of protein X5 of SARS-CoV Urbani / Binding of serum 37 to looped/cyclic peptides of protein X5 of SARS-CoV Urbani / Binding of serum 6 to linear peptides of protein N of SARS-CoV Urbani / Binding of serum 37 to linear peptides of protein N of SARS-CoV Urbani / Binding of serum 6 to linear peptide (PEPSCAN-ELISA) / Binding of serum 1a to looped/cyclic peptides of protein N of SARS-CoV Urbani / Binding of serum 1b to looped/cyclic peptides of protein N of SARS-CoV Urbani / Binding of serum 2 to looped/cyclic peptides of protein N of SARS-CoV Urbani / Binding of serum 6 to looped/cyclic peptides of protein N of SARS-CoV Urbani / Binding of serum 37 to looped/cyclic peptides of protein N of SARS-CoV Urbani / Binding of serum 62 to looped/cyclic peptides of protein N of SARS-CoV Urbani / Binding of serum London to looped/cyclic peptides of protein N of SARS-CoV Urbani / Binding of serum SARS-green to looped/cyclic peptides of protein N of SARS-CoV Urbani: unit not given here
# [2] = system: rabbit serum obtained by immunizing a rabbit with the SARS-CoV strain Frankfurt 1; type: binding; set-up: Binding of a rabbit serum to linear peptides / Binding of a rabbit serum to looped peptides / Rabbit serum linear peptides / Rabbit serum looped peptides / Binding of a rabbit serum to linear peptides of protein N of SARS-CoV Urbani (Rabbit serum linear peptides) / Binding of a rabbit serum to looped/cyclic peptides of protein N of SARS-CoV Urbani (Rabbit serum looped peptides): unit not given here
# [3] = system: control sera (pooled serum of ten healthy LUMC hospital workers; commercial negative donor pooled serum from the Dutch bloodbank); type: binding, human; set-up: Binding of Control serum LUMC to linear peptides / Binding of Control serum Blood-bank to linear peptides / Binding of Control serum LUMC to looped peptides / Binding of Control Serum Blood-Bank to Looped peptides / Binding of Control serum LUMC to linear peptides of the protein M of SARS-CoV Urbani / Binding of Control serum Blood-bank to linear peptides of the protein M of SARS-CoV Urbani / Binding of Control serum LUMC to looped peptides of the protein M of SARS-CoV Urbani / Binding of Control Serum Blood-Bank to Looped peptides of the protein M of SARS-CoV Urbani: unit not given here
sequence,measurement,setting,value
GIENATFFIFNKLVK,Binding of serum 1a to linear peptides of protein X1 of SARS-CoV Urbani,[1],0.6
same,Binding of serum 1a to looped/cyclic peptides of protein X1 of SARS-CoV Urbani,[1],0.6
same,Binding of serum 1b to linear peptides of protein X1 of SARS-CoV Urbani,[1],0.5
same,Binding of serum 1b to looped/cyclic peptides of protein X1 of SARS-CoV Urbani,[1],0.4
same,Binding of serum 2 to linear peptides of protein X1 of SARS-CoV Urbani,[1],0.5
same,Binding of serum 2 to looped/cyclic peptides of protein X1 of SARS-CoV Urbani,[1],0.5
same,Binding of serum 6 to linear peptides of protein X1 of SARS-CoV Urbani,[1],0.5
same,Binding of serum 6 to looped/cyclic peptides of protein X1 of SARS-CoV Urbani,[1],0.5
same,Binding of serum 37 to linear peptides of protein X1 of SARS-CoV Urbani,[1],0.6
same,Binding of serum 37 to looped/cyclic peptides of protein X1 of SARS-CoV Urbani,[1],0.6
same,Binding of serum 62 to linear peptides of protein X1 of SARS-CoV Urbani,[1],0.6
same,Binding of serum 62 to looped/cyclic peptides of protein X1 of SARS-CoV Urbani,[1],0.6
same,Binding of serum London to linear peptides of protein X1 of SARS-CoV Urbani,[1],0.3
same,Binding of serum London to looped/cyclic peptides of protein X1 of SARS-CoV Urbani,[1],0.2
same,Binding of serum SARS-green to linear peptides of protein X1 of SARS-CoV Urbani,[1],0.2
same,Binding of serum SARS-green to looped/cyclic peptides of protein X1 of SARS-CoV Urbani,[1],0.2
same,Binding of serum SARS-yellow to linear peptides of protein X1 of SARS-CoV Urbani,[1],0.5
same,Binding of serum SARS-yellow to looped/cyclic peptides of protein X1 of SARS-CoV Urbani,[1],0.5
same,Binding of a rabbit serum to linear peptides,[2],0.1
same,Binding of a rabbit serum to looped peptides,[2],0.6
same,Binding of Control Serum Blood-Bank to Looped peptides,[3],0.5
same,Binding of Control serum Blood-bank to linear peptides,[3],0.6
same,Binding of Control serum LUMC to linear peptides,[3],0.5
same,Binding of Control serum LUMC to looped peptides,[3],0.5
GLMWLSYFVASFRLF,Binding of serum 1a to linear peptides of protein M of SARS-CoV Urbani,[1],0.7
same,Binding of serum 1a to looped/cyclic peptides of protein M of SARS-CoV Urbani,[1],0.6
same,Binding of serum 1b to linear peptides of protein M of SARS-CoV Urbani,[1],0.4
same,Binding of serum 1b to looped/cyclic peptides of protein M of SARS-CoV Urbani,[1],0.2
same,Binding of serum 2 to linear peptides of protein M of SARS-CoV Urbani,[1],0.4
same,Binding of serum 2 to looped/cyclic peptides of protein M of SARS-CoV Urbani,[1],0.6
same,Binding of serum 6 to linear peptides of protein M of SARS-CoV Urbani,[1],0.6
same,Binding of serum 6 to looped/cyclic peptides of protein M of SARS-CoV Urbani,[1],0.8
same,Binding of serum 37 to linear peptides of protein M of SARS-CoV Urbani,[1],0.5
same,Binding of serum 37 to looped/cyclic peptides of protein M of SARS-CoV Urbani,[1],0.5
same,Binding of serum 62 to linear peptides of protein M of SARS-CoV Urbani,[1],0.6
same,Binding of serum 62 to looped/cyclic peptides of protein M of SARS-CoV Urbani,[1],0.6
same,Binding of serum London to linear peptides of protein M of SARS-CoV Urbani,[1],0.4
same,Binding of serum London to looped/cyclic peptides of protein M of SARS-CoV Urbani,[1],0.3
same,Binding of serum SARS-green to linear peptides of protein M of SARS-CoV Urbani,[1],0.3
same,Binding of serum SARS-green to looped/cyclic peptides of protein M of SARS-CoV Urbani,[1],0.3
same,Binding of serum SARS-yellow to linear peptides of protein M of SARS-CoV Urbani,[1],0.1
same,Binding of serum SARS-yellow to looped/cyclic peptides of protein M of SARS-CoV Urbani,[1],0.7
same,Rabbit serum linear peptides,[2],0.2
same,Rabbit serum looped peptides,[2],0.2
same,Binding of Control Serum Blood-Bank to Looped peptides of the protein M of SARS-CoV Urbani,[3],0.7
same,Binding of Control serum Blood-bank to linear peptides of the protein M of SARS-CoV Urbani,[3],0.6
same,Binding of Control serum LUMC to linear peptides of the protein M of SARS-CoV Urbani,[3],0.2
same,Binding of Control serum LUMC to looped peptides of the protein M of SARS-CoV Urbani,[3],0.6
GNTYSTAWLCALGKV,Binding of serum 1a to linear peptides of protein X5 of SARS-CoV Urbani,[1],0.8
same,Binding of serum 1a to looped/cyclic peptides of protein X5 of SARS-CoV Urbani,[1],0.4
same,Binding of serum 1b to linear peptides of protein X5 of SARS-CoV Urbani,[1],0.6
same,Binding of serum 1b to looped/cyclic peptides of protein X5 of SARS-CoV Urbani,[1],0.2
same,Binding of serum 2 to linear peptides of protein X5 of SARS-CoV Urbani,[1],0.9
same,Binding of serum 2 to looped/cyclic peptides of protein X5 of SARS-CoV Urbani,[1],0.5
same,Binding of serum 6 to linear peptides of protein X5 of SARS-CoV Urbani,[1],0.6
same,Binding of serum 6 to looped/cyclic peptides of protein X5 of SARS-CoV Urbani,[1],0.3
same,Binding of serum 37 to linear peptides of protein X5 of SARS-CoV Urbani,[1],0.7
same,Binding of serum 37 to looped/cyclic peptides of protein X5 of SARS-CoV Urbani,[1],0.5
same,Binding of serum 62 to linear peptides of protein X5 of SARS-CoV Urbani,[1],0.8
same,Binding of serum 62 to looped/cyclic peptides of protein X5 of SARS-CoV Urbani,[1],0.7
same,Binding of serum London to linear peptides of protein X5 of SARS-CoV Urbani,[1],0.7
same,Binding of serum London to looped/cyclic peptides of protein X5 of SARS-CoV Urbani,[1],0.2
same,Binding of serum SARS-green to linear peptides of protein X5 of SARS-CoV Urbani,[1],0.6
same,Binding of serum SARS-green to looped/cyclic peptides of protein X5 of SARS-CoV Urbani,[1],0.3
same,Binding of serum SARS-yellow to linear peptides of protein X5 of SARS-CoV Urbani,[1],0.4
same,Binding of serum SARS-yellow to looped/cyclic peptides of protein X5 of SARS-CoV Urbani,[1],0.5
same,Rabbit serum linear peptides,[2],0.9
same,Rabbit serum looped peptides,[2],0.6
same,Binding of Control Serum Blood-Bank to Looped peptides,[3],0.4
same,Binding of Control serum Blood-bank to linear peptides,[3],0.9
same,Binding of Control serum LUMC to linear peptides,[3],0.5
same,Binding of Control serum LUMC to looped peptides,[3],0.6
